Measurements published in article PMC8815882, “Screening the pandemic response box identified benzimidazole carbamates, Olorofim and ravuconazole as promising drug candidates for the treatment of eumycetoma” (PLoS Neglected Tropical Diseases, 2022).
Read-outs that look alike come from different tables or passages of the source.

Tested on: M. mycetomatis genome strain MM55
Assay: CLSI M38-A2 based in vitro susceptibility screening (XTT or resazurin), growth at fixed concentration
Type: cell-based, Madurella mycetomatis
Details: Madurella mycetomatis; for Percent fungal survival at 100 µM: read-out: Percentage survival at 100um, 100 uM A (second replicate column)
[1] = mean of replicates, read-out: Percentage survival at 25um, 25 uM mean
[2] = replicate A, read-out: Percentage survival at 25um, 25 um A
[3] = replicate B, read-out: Percentage survival at 25um, 25 uM B
[4] = replicate C, read-out: Percentage survival at 25um, 25 uM C
[5] = mean of replicates, read-out: Percentage survival at 100um, 100 uM mean
[6] = replicate 1, read-out: Percentage survival at 100um, 100 uM A
[7] = replicate 2, read-out: Percentage survival at 100um, 100 uM A
[8] = replicate 3, read-out: Percentage survival at 100um, 100 uM A
[9] = mean of replicates, MM55, read-out: Percentage survival at 25um, 25 uM mean
[10] = replicate A, MM55, read-out: Percentage survival at 25um, 25 um A
[11] = replicate B, MM55, read-out: Percentage survival at 25um, 25 uM B
[12] = replicate C, MM55, read-out: Percentage survival at 25um, 25 uM C
[13] = mean of replicates, MM55, read-out: Percentage survival at 100um, 100 uM mean
[14] = replicate 1, MM55, read-out: Percentage survival at 100um, 100 uM A
[15] = replicate 2, MM55, read-out: Percentage survival at 100um, 100 uM A
[16] = replicate 3, MM55, read-out: Percentage survival at 100um, 100 uM A
[17] = mean of three, M. mycetomatis MM55, read-out: Percentage survival at 25um, 25 uM mean
[18] = replicate A, M. mycetomatis MM55, read-out: Percentage survival at 25um, 25 um A
[19] = replicate B, M. mycetomatis MM55, read-out: Percentage survival at 25um, 25 uM B
[20] = replicate C, M. mycetomatis MM55, read-out: Percentage survival at 25um, 25 uM C
[21] = mean of three, M. mycetomatis MM55, read-out: Percentage survival at 100um, 100 uM mean
[22] = replicate 1, M. mycetomatis MM55, read-out: Percentage survival at 100um, 100 uM A (first replicate column)
[23] = replicate 2, M. mycetomatis MM55
[24] = replicate 3, M. mycetomatis MM55, read-out: Percentage survival at 100um, 100 uM A (third replicate column)
[25] = mean of three replicates, read-out: Percentage survival at 25um, 25 uM mean
[26] = first replicate column, read-out: Percentage survival at 100um, 100 uM A
[27] = mean of three replicates, read-out: Percentage survival at 100um, 100 uM mean
[28] = second replicate column, read-out: Percentage survival at 100um, 100 uM A
[29] = third replicate column, read-out: Percentage survival at 100um, 100 uM A

**Q.** With CCc1cc(Nc2cc(=O)n(CCN3CCN(C(=O)c4ccccc4)CC3)c(=O)[nH]2)ccc1C [MMV1634383] as the compound, how does the activity at 25 µM [1] read?
**A.** 84%

**Q.** What about the activity at 25 µM [2] of the same compound?
**A.** 86.7%

**Q.** And the activity at 25 µM [3]?
**A.** 79.7%

**Q.** And the activity at 25 µM [4]?
**A.** 85.7%

**Q.** What about the activity at 100 µM [5] of the same compound?
**A.** 88.4%

**Q.** What about the activity at 100 µM [6] of the same compound?
**A.** 93%

**Q.** What about the activity at 100 µM [7] of the same compound?
**A.** 83.3%

**Q.** What about the activity at 100 µM [8] of the same compound?
**A.** 89%

**Q.** Which results are given for CCN(CC)S(=O)(=O)c1ccc(Cl)c(C(=O)Nc2sc3c(c2C#N)CCCC3)c1 [MMV1634384]?
**A.** activity at 25 µM [1]: 89.4%; activity at 25 µM [2]: 87.9%; activity at 25 µM [3]: 80.1%; activity at 25 µM [4]: 100%; activity at 100 µM [5]: 89.5%; activity at 100 µM [6]: 89.4%; activity at 100 µM [7]: 89.9%; activity at 100 µM [8]: 89.3%

**Q.** How did the activity at 25 µM [9] turn out when Nc1ccc(-c2nc3cc(C(F)(F)F)ccc3n2C23CC4CC(CC(C4)C2)C3)cc1 [MMV1634385] was run?
**A.** 82.4%

**Q.** What about the activity at 25 µM [10] of the same compound?
**A.** 108%

**Q.** What about the activity at 25 µM [11] of the same compound?
**A.** 85.4%

**Q.** And the activity at 25 µM [12]?
**A.** 54%

**Q.** And the activity at 100 µM [13]?
**A.** 57.5%

**Q.** And the activity at 100 µM [14]?
**A.** 61.2%

**Q.** And the activity at 100 µM [15]?
**A.** 52.2%

**Q.** And the activity at 100 µM [16]?
**A.** 59.1%

**Q.** What does the source list for CC(C)(C)c1ccc(OCCn2nc(C(=O)O)c3ccccc3c2=O)cc1 [MMV1634387]?
**A.** activity at 25 µM [17]: 81.2%; activity at 25 µM [18]: 89.9%; activity at 25 µM [19]: 84.5%; activity at 25 µM [20]: 69.2%; activity at 100 µM [21]: 66.6%; activity at 100 µM [22]: 80.6%; Percent fungal survival at 100 µM [23]: 37.8%; activity at 100 µM [24]: 81.3%

**Q.** With CC(C)N(c1cc(-c2ccccc2)sc1C(=O)O)C(=O)[C@H]1CC[C@H](C)CC1 [MMV1634388] as the compound, how does the activity at 25 µM [25] read?
**A.** 90%

**Q.** And the activity at 25 µM [2]?
**A.** 89.7%

**Q.** And the activity at 25 µM [3]?
**A.** 99.2%

**Q.** And the activity at 25 µM [4]?
**A.** 81.2%

**Q.** And the activity at 100 µM [26]?
**A.** 83.3%

**Q.** And the activity at 100 µM [27]?
**A.** 76.1%

**Q.** What about the activity at 100 µM [28] of the same compound?
**A.** 68.1%

**Q.** What about the activity at 100 µM [29] of the same compound?
**A.** 77%

**Q.** For Nc1nc(C(F)(F)F)cc2c1[nH]c(=O)n2Cc1ccccc1 [MMV1634389], which activity at 25 µM [1] is on record?
**A.** 83.5%

**Q.** What about the activity at 25 µM [2] of the same compound?
**A.** 74.5%

**Q.** And the activity at 25 µM [3]?
**A.** 96.8%

**Q.** And the activity at 25 µM [4]?
**A.** 79.4%

**Q.** And the activity at 100 µM [5]?
**A.** 61.6%

**Q.** And the activity at 100 µM (replicate 1, read-out: Percentage survival at 100um, 100 uM A (first replicate column))?
**A.** 36.1%

**Q.** And the Percent fungal survival at 100 µM (replicate 2)?
**A.** 67.1%

**Q.** And the activity at 100 µM (replicate 3, read-out: Percentage survival at 100um, 100 uM A (third replicate column))?
**A.** 81.6%

**Q.** With CCNC(=O)Nc1cc2c(-c3ccnc(C)c3)ccc(CNC(=O)OC)c2cn1 [MMV1634390] as the compound, how does the activity at 25 µM [17] read?
**A.** 86.2%

**Q.** What about the activity at 25 µM [18] of the same compound?
**A.** 98.4%

**Q.** And the activity at 25 µM [19]?
**A.** 81%

**Q.** And the activity at 25 µM [20]?
**A.** 79.2%

**Q.** What about the activity at 100 µM [21] of the same compound?
**A.** 52.4%

**Q.** And the activity at 100 µM [22]?
**A.** 60.4%

**Q.** What about the Percent fungal survival at 100 µM [23] of the same compound?
**A.** 7.35%

**Q.** And the activity at 100 µM [24]?
**A.** 89.5%

**Q.** Cn1cc(NC(=O)c2cc(NC(=O)c3ccc(/C=C/c4cnc5ccccc5c4)cc3)cn2C)cc1C(=O)NCCN1CCOCC1 [MMV1634391] was tested. Which activity at 25 µM [1] did it give?
**A.** 73.9%

**Q.** And the activity at 25 µM [2]?
**A.** 63.4%

**Q.** And the activity at 25 µM [3]?
**A.** 79.1%

**Q.** And the activity at 25 µM [4]?
**A.** 79.2%

**Q.** What about the activity at 100 µM [5] of the same compound?
**A.** 60.7%

**Q.** What about the activity at 100 µM [6] of the same compound?
**A.** 61%

**Q.** What about the activity at 100 µM [7] of the same compound?
**A.** 53.1%

**Q.** And the activity at 100 µM [8]?
**A.** 68%

**Q.** CCCCc1ccc(-c2nc(C)c(C(=O)OC)s2)cc1 [MMV1634392] was tested. Which activity at 25 µM [9] did it give?
**A.** 77.2%

**Q.** What about the activity at 25 µM [10] of the same compound?
**A.** 84.6%

**Q.** And the activity at 25 µM [11]?
**A.** 81.9%

**Q.** And the activity at 25 µM [12]?
**A.** 65.1%

**Q.** And the activity at 100 µM [13]?
**A.** 65.3%

**Q.** What about the activity at 100 µM [14] of the same compound?
**A.** 48.8%

**Q.** What about the activity at 100 µM [15] of the same compound?
**A.** 54.8%

**Q.** What about the activity at 100 µM [16] of the same compound?
**A.** 92.3%

**Q.** How did the activity at 25 µM [9] turn out when CC(C)(C)c1ccc(C(Cn2cccc(C(F)(F)F)c2=O)NC2Cc3ccccc3C2)cc1 (stereo not shown) [MMV1634393] was run?
**A.** 62.5%

**Q.** What about the activity at 25 µM [10] of the same compound?
**A.** 51.3%

**Q.** And the activity at 25 µM [11]?
**A.** 64.6%

**Q.** And the activity at 25 µM [12]?
**A.** 71.7%

**Q.** What about the activity at 100 µM [13] of the same compound?
**A.** 66.7%

**Q.** And the activity at 100 µM [14]?
**A.** 63.7%

**Q.** What about the activity at 100 µM [15] of the same compound?
**A.** 74.2%

**Q.** And the activity at 100 µM [16]?
**A.** 62.2%

**Q.** How did the activity at 25 µM [25] turn out when Cc1ccc(N2CCC(CCOc3ccc(S(C)(=O)=O)cc3)CC2)nn1 [MMV1634394] was run?
**A.** 86.9%

**Q.** And the activity at 25 µM [2]?
**A.** 79.1%

**Q.** And the activity at 25 µM [3]?
**A.** 80.9%

**Q.** What about the activity at 25 µM [4] of the same compound?
**A.** 101%

**Q.** What about the activity at 100 µM [26] of the same compound?
**A.** 52.8%

**Q.** And the activity at 100 µM [27]?
**A.** 63.9%

**Q.** And the activity at 100 µM [28]?
**A.** 75.2%

**Q.** What about the activity at 100 µM [29] of the same compound?
**A.** 63.7%
